Among the test systems are CCRF-CEM leukemia; HCC-2998 colon; LOX IMVI melanoma; MCF7 breast; MDA-MB-435; OVCAR-3 ovarian; SF-295 CNS; SK-MEL-28 melanoma; SNB-75 CNS; T-47D breast.
Holding throughout (experiment): NCI tumour cell line growth inhibition, 48 h

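Five concentrations, 48 hours, 96-well plates. Abbreviation: GI50, concentration required for 50% inhibition of growth. At the TGI there is no net growth.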

Consider `O=C(c1ccccc1)n1c(-c2ccccc2)cs/c1=N\S(=O)(=O)c1ccc(N2N=C3c4ccccc4CC3C2c2cccs2)cc1` (stereo not given), for which the GI50 with CCRF-CEM leukemia was 41.3 µM; in the assay with HCC-2998 colon, 14 µM; with LOX IMVI melanoma it was 30.7 µM; in the assay with MCF7 breast, more than 100 µM; in the assay on MDA-MB-435, 31.1 µM; in the assay with OVCAR-3 ovarian, 55.2 µM. Also, the GI50 in the assay with SF-295 CNS is 37.1 µM; in the assay on SK-MEL-28 melanoma, more than 100 µM; in the assay with SNB-75 CNS, more than 100 µM; in the assay with T-47D breast, more than 100 µM. Further, the TGI in the assay with CCRF-CEM leukemia is more than 100 µM; with HCC-2998 colon, 32.6 µM; in the assay on LOX IMVI melanoma, more than 100 µM; in the assay with MCF7 breast, more than 100 µM; in the assay on MDA-MB-435 it was more than 100 µM; with OVCAR-3 ovarian, more than 100 µM. For the same compound, the TGI in the assay with SF-295 CNS, in the assay on SK-MEL-28 melanoma, in the assay with SNB-75 CNS and in the assay with T-47D breast was more than 100 µM each time.
For the compound `Cc1ccc(-c2nc(-c3cn(C)c4ncccc34)cs2)cc1`, the GI50 in the assay on CCRF-CEM leukemia is 14.7 µM; in the assay on HCC-2998 colon, 8.96 µM; in the assay on LOX IMVI melanoma, 5.06 µM; with MCF7 breast, 2.39 µM; in the assay with MDA-MB-435, 0.402 µM; with OVCAR-3 ovarian it was 3.23 µM. The GI50 with SF-295 CNS is 2.3 µM; in the assay with SK-MEL-28 melanoma it was 10.2 µM; in the assay with SNB-75 CNS, 4.16 µM; with T-47D breast, 2.53 µM. Also, the TGI in the assay with CCRF-CEM leukemia is more than 80 µM; in the assay with HCC-2998 colon, 22.8 µM; with LOX IMVI melanoma, 18.1 µM; in the assay with MCF7 breast, 15.9 µM; with MDA-MB-435, 2.88 µM; in the assay on OVCAR-3 ovarian, 11.3 µM. Further, the TGI in the assay on SF-295 CNS amounted to 11.1 µM; in the assay with SK-MEL-28 melanoma it was 26.4 µM; in the assay with SNB-75 CNS it was 22.4 µM; with T-47D breast, 18.6 µM.
For `O=c1cc(-c2ccccc2)oc2cc(OC/C(=N/O)c3ccc(F)cc3)ccc12`, the GI50 was 23.7 µM in the assay on CCRF-CEM leukemia; 15.3 µM with HCC-2998 colon; 20.8 µM in the assay on LOX IMVI melanoma; 11.9 µM in the assay on MCF7 breast; 13.8 µM with MDA-MB-435; 11.4 µM in the assay on OVCAR-3 ovarian. Also, the GI50 in the assay with SF-295 CNS is 8.93 µM; with SK-MEL-28 melanoma it was 27.1 µM; in the assay with SNB-75 CNS it was more than 50 µM; with T-47D breast, 25.5 µM. Also, the TGI with CCRF-CEM leukemia is more than 50 µM; in the assay with HCC-2998 colon, 45.8 µM; in the assay on LOX IMVI melanoma it was more than 50 µM; in the assay on MCF7 breast, 31 µM; with MDA-MB-435 it was more than 50 µM; in the assay on OVCAR-3 ovarian it was 35.6 µM. In addition, the TGI was 24.6 µM in the assay with SF-295 CNS, more than 50 µM in the assay with SK-MEL-28 melanoma, more than 50 µM with SNB-75 CNS and more than 50 µM in the assay with T-47D breast.
On to `C[C@]12CCNC(=O)C=C1CC[C@@H]1C2CC[C@@]2(C)C1CC[C@@H]2OC(=O)COc1ccc(N(CCCl)CCCl)cc1` (stereo not given in full), for which the TGI with CCRF-CEM leukemia stood at 9.45 µM; in the assay on HCC-2998 colon, 15 µM; in the assay on LOX IMVI melanoma it was 22.8 µM; with MCF7 breast, 14.8 µM; with MDA-MB-435, 74.5 µM; in the assay on OVCAR-3 ovarian, 8.25 µM. Further, the TGI in the assay on SF-295 CNS worked out at 30.6 µM; with SK-MEL-28 melanoma, 36.3 µM; in the assay on SNB-75 CNS, 47.2 µM; in the assay with T-47D breast, 9.03 µM.
As for `COc1cc(C2C3=C(COC3=O)N(CCO)c3cc4c(cc32)OCO4)cc(OC)c1O` (stereo not given), the GI50 with CCRF-CEM leukemia was 1.51 µM; in the assay with HCC-2998 colon, 1.53 µM; in the assay with LOX IMVI melanoma it was 2.5 µM; in the assay with MCF7 breast it was 1.19 µM; in the assay with MDA-MB-435 it was 0.343 µM; in the assay on OVCAR-3 ovarian it was 0.982 µM. Besides, the GI50 with SF-295 CNS is 1.47 µM; in the assay on SK-MEL-28 melanoma, more than 50 µM; in the assay with SNB-75 CNS it was 1.12 µM; with T-47D breast, 1.97 µM. Moreover, the TGI was more than 50 µM with CCRF-CEM leukemia; 4.65 µM in the assay on HCC-2998 colon; more than 50 µM with LOX IMVI melanoma; more than 50 µM in the assay with MCF7 breast; 1.53 µM in the assay with MDA-MB-435; 2.22 µM in the assay with OVCAR-3 ovarian. Also, the TGI in the assay with SF-295 CNS is more than 14.6 µM; with SK-MEL-28 melanoma it was more than 50 µM; in the assay with SNB-75 CNS, 3.51 µM; in the assay on T-47D breast it was more than 50 µM.
Regarding `Cc1cc(Cl)ccc1Nc1nc(C(F)(F)F)ccc1C(=O)N/N=C/c1ccccc1Cl`, the GI50 with CCRF-CEM leukemia was 0.341 µM; with HCC-2998 colon, 1.34 µM; with LOX IMVI melanoma, 0.53 µM; in the assay on MCF7 breast, 0.896 µM; with MDA-MB-435 it was 2.29 µM; in the assay on OVCAR-3 ovarian, 0.239 µM. Moreover, the GI50 is 0.691 µM with SF-295 CNS, 1.38 µM in the assay on SK-MEL-28 melanoma, 2.29 µM in the assay with SNB-75 CNS and 0.824 µM with T-47D breast. For the same compound, the TGI in the assay on CCRF-CEM leukemia is 4.78 µM; in the assay with HCC-2998 colon, more than 100 µM; in the assay on LOX IMVI melanoma, 2.94 µM; in the assay with MCF7 breast it was 10.6 µM; with MDA-MB-435, 20.9 µM; with OVCAR-3 ovarian, 2.15 µM. For the same compound, the TGI is 4.12 µM in the assay with SF-295 CNS, 6.88 µM in the assay on SK-MEL-28 melanoma, more than 29.3 µM in the assay with SNB-75 CNS and 4.63 µM in the assay on T-47D breast.
In the case of `COc1cc2c(=O)n(CCN(C)C)c3c4cc5c(cc4ccc3c2cc1OC)OCO5`, the GI50 was 0.146 µM with CCRF-CEM leukemia; 0.53 µM in the assay on HCC-2998 colon; 0.1 µM in the assay on LOX IMVI melanoma; 0.102 µM in the assay on MCF7 breast; 0.329 µM in the assay with MDA-MB-435; 0.583 µM in the assay with OVCAR-3 ovarian. The GI50 in the assay on SF-295 CNS is 0.155 µM; in the assay with SK-MEL-28 melanoma, 0.747 µM; in the assay on SNB-75 CNS it was 0.23 µM; in the assay with T-47D breast, 0.111 µM. In addition, the TGI was more than 10.9 µM in the assay on CCRF-CEM leukemia; 1.36 µM in the assay with HCC-2998 colon; 0.32 µM with LOX IMVI melanoma; 6.16 µM in the assay on MCF7 breast; 1.29 µM in the assay on MDA-MB-435; 19 µM in the assay on OVCAR-3 ovarian. The TGI in the assay with SF-295 CNS turned out to be 3.15 µM; with SK-MEL-28 melanoma it was 3.3 µM; with SNB-75 CNS, 5.05 µM; with T-47D breast, 0.486 µM.
Turning to `Cc1cccc(NC(=O)/C=C/c2ccc([N+](=O)[O-])cc2)c1`, the TGI was more than 100 µM in the assay on CCRF-CEM leukemia; 32.7 µM in the assay on HCC-2998 colon; more than 53 µM in the assay with LOX IMVI melanoma; more than 43.9 µM in the assay with MCF7 breast; more than 52.3 µM in the assay on MDA-MB-435; 27.6 µM in the assay with OVCAR-3 ovarian. The TGI in the assay on SF-295 CNS is more than 58 µM; in the assay on SK-MEL-28 melanoma it was more than 57.6 µM; in the assay with SNB-75 CNS, more than 60.4 µM; in the assay with T-47D breast it was more than 55.9 µM.

These data come from PubChem BioAssay (NCI).
